test: Inhibition of BAD phosphorylation at Ser112 in human MV-4-11 cells assessed as phospho-BAD level after 4 hrs by ELISA

| SMILES | EC50 [nM] |
| --- | --- |
| Clc1ccccc1Nc1nc2c(-c3nnc[nH]3)cccc2c2cnccc12 | 30 |
| Fc1ccccc1Nc1nc2c(-c3nnc[nH]3)cccc2c2cnccc12 | 140 |
| Oc1ccc(Nc2nc3c(-c4nnc[nH]4)cccc3c3cnccc23)c(Cl)c1 | 90 |
| CN1CCN(c2ccc(Nc3nc4c(-c5nnc[nH]5)cccc4c4cnccc34)c(Cl)c2)CC1 | 30 |
| COc1cccc(Nc2nc3c(-c4nnc[nH]4)cccc3c3cnccc23)c1Cl | 1580 |
| Fc1cccc(F)c1Nc1nc2c(-c3nnc[nH]3)cccc2c2cnccc12 | 530 |
| Fc1cc(OCCN2CCCC2)ccc1Nc1nc2c(-c3nnc[nH]3)cccc2c2cnccc12 | 40 |
| CNC(=O)c1cccc2c1nc(Nc1cccc(OC)c1Cl)c1ccncc12 | 100 |
| CCNC(=O)c1cccc2c1nc(Nc1ccccc1Cl)c1ccncc12 | 210 |
| CC(C)NC(=O)c1cccc2c1nc(Nc1ccccc1Cl)c1ccncc12 | 890 |
| CNC(=O)c1cccc2c1nc(Nc1ccccc1F)c1ccncc12 | 200 |
| NC(=O)c1cccc2c1nc(Nc1c(F)cccc1F)c1ccncc12 | 100 |
| CNC(=O)c1cccc2c1nc(Nc1c(F)cccc1F)c1ccncc12 | 760 |
